Source: patent US20220016101A1 (ACADIA Pharmaceuticals Inc., priority 2018, published 2022)
Values joined by “and” are separate entries in the source; they are usually repeats but may differ in a detail not shown here. Equal values may be shown once.

Key:
[1] = tested on: patients with MDD and an inadequate response to an SSRI or SNRI; assay: HAMD-17 anxiety/somatization subscale score, MDD study; assay type: in vivo, human; conditions: for HAMD-17 anxiety/somatization subscale score LSM (SE) Change from Baseline to Week 5: 34 mg QD + SSRI/SNRI
Method: Key endpoints were change from baseline to the end of each stage for the HAMD-17 total score and SDS score.
(§1) All patients continued on their SSRI or SNRI at a stable dose for the duration of the study.
(§2) Clinic visits occurred weekly from Weeks 1 through 10. The MADRS was administered at screening and baseline. The HAMD-17, SDS, CGI, and KSS were administered at baseline and weekly during the study. Other endpoints such as the SF-12 were administered at baseline and Weeks 5 and 10. Treatment response was defined as a reduction of 50% from baseline for the HAMD-17 total score, and remission was defined as a HAMD-17 total score
A higher HAMD-17 anxiety/somatization subscale score indicates more severe depression with anxiety symptoms.

[2] = tested on: patients with MDD and an inadequate response to an SSRI or SNRI; assay: HAMD-17 Item 14 (sexual interest), Study ACP-103-042; assay type: in vivo, human; conditions: Week 5
Text: The determination of the subject's status and eligibility for randomization in Stage 2 was made in a double-blind manner.

[3] = tested on: patients with MDD and an inadequate response to an SSRI or SNRI; assay: Karolinska Sleepiness Scale (KSS), MDD study; assay type: in vivo, human; conditions: Week 5 of Stage 1
Method: “Karolinska Sleepiness Scale (KSS)” is a scale for evaluating subjective sleepiness (Kaida et al. Clinical Neurophysiology 2006, 117, 7, 1574-1581).
as §2

[4] = tested on: patients with MDD and an inadequate response to an SSRI or SNRI; assay: Sheehan Disability Score (SDS): score, functional remission, days unproductive, MDD study; assay type: in vivo, human
Text: The SDS is well validated and widely accepted for assessing functional outcomes in patients with MDD (Weiller et al, Neuropsychiatr Dis Treat. 2017; 14:103-115). […] Routine assessments of both symptoms and function could be helpful for minimizing residual effects that increase the risk for relapse or recurrence (Sheehan et al, J Affect Disord. 2017; 215:299-313).
“Functional remission” as used herein refers to remission in functional impairment. Functional remission is defined as a SDS total score of 6 or less at endpoint. (Sheehan et al. Human Psychopharmacology 2016, 31, 53-63).
as §1, §2
In Stage 1, weeks 1-5 is the study weeks 1-5 and in Stage 2, weeks 1-5 is the study weeks 6-10. 95% CI refers to Newcombe 95% confidence interval. The p-value is from stage-specific Pearson's Chi-square test. Functional remission is defined as SDS total score […].
Higher SDS mean score indicates greater functional impairment. […] In Stage 1, weeks 1-5 is the study weeks 1-5 and in Stage 2, weeks 1-5 is the study weeks 6-10. LSM from the stage-specific MMRM analysis with the change from baseline as the outcome; treatment group, visit, treatment-by-visit interaction, baseline SDS Day Unproductive, and baseline SDS Days Unproductive-by-visit interaction as the factors. 2-sided p-value for treatment difference from the stage-specific MMRM analysis.

[5] = tested on: patients with MDD and an inadequate response to an SSRI or SNRI; conditions: in vivo
[6] = Stage 1, subgroup baseline subscale score ≥7
[7] = Stage 2, subgroup baseline subscale score ≥7

With `CC(C)COc1ccc(CNC(=O)N(Cc2ccc(F)cc2)C2CCN(C)CC2)cc1` [pimavanserin, N-(4-Fluorophenylmethyl)-N-(1-methylpiperidin-4-yl)-N′-(4-(2-methylpropyloxy)phenylmethyl)carbamide] the “HAMD-17 anxiety/somatization subscale score Diff in LSM (SE) vs placebo” value ([1]; Stage 1) was −1.5 (0.41), the “HAMD-17 anxiety/somatization subscale score Effect Size (Cohen's d)” value ([1]; Stage 1) was 0.634 and the “HAMD-17 anxiety/somatization subscale score LSM (SE) Change from Baseline to Week 5” value ([1]; Stage 1) was −3.7 (0.36). The “HAMD-17 anxiety/somatization subscale score LSM (SE) Change from Baseline to Week 5” value ([1]; Stage 1, subgroup baseline anxiety/somatization subscale score ≥7) was −5.0 (0.56), the “HAMD-17 anxiety/somatization subscale score Diff in LSM (SE) vs placebo” value [1, 6] was −2.2 (0.66) and the “HAMD-17 anxiety/somatization subscale score Effect Size (Cohen's d)” value [1, 6] was 0.781. For the same compound, the “HAMD-17 anxiety/somatization subscale score Diff in LSM (SE) vs placebo” value ([1]; Stage 2) was 0.0 (0.48), the “HAMD-17 anxiety/somatization subscale score Effect Size (Cohen's d)” value ([1]; Stage 2) was −0.007 and the “HAMD-17 anxiety/somatization subscale score LSM (SE) Change from Baseline to Week 5” value ([1]; Stage 2) was −0.6 (0.33). The “HAMD-17 anxiety/somatization subscale score LSM (SE) Change from Baseline to Week 5” value ([1]; Stage 2, subgroup baseline anxiety/somatization subscale score ≥7) was −1.3 (0.44), the “HAMD-17 anxiety/somatization subscale score Diff in LSM (SE) vs placebo” value [1, 7] was 0.1 (0.66) and the “HAMD-17 anxiety/somatization subscale score Effect Size (Cohen's d)” value [1, 7] was −0.067. For the same compound, the “HAMD-17 Item 14 (sexual interest) Cohen's d effect size” value [2] was 0.574, the “HAMD-17 Item 14 (sexual interest) LS Mean (SE) change from baseline” value ([2]; 34 mg QD + SSRI/SNRI) was −0.7 (0.12) and the KSS effect size [3] was 0.627. For the same compound, the “KSS LSmean difference from baseline for pimavanserin vs. placebo” value ([3]; daytime sleepiness) was −1.1 (0.30), the “SDS Days Unproductive Effect Size (Cohen's d)” value ([4]; Stage 1) was 0.518 and the “SDS Days Unproductive Change from Baseline to Week 5 Mean (SE)” value ([4]; Stage 1, 34 mg QD + SSRI/SNRI) was −2.364 (0.3253). For the same compound, the “SDS Days Unproductive Change from Baseline to Week 5 Median” value ([4]; Stage 1, 34 mg QD + SSRI/SNRI) was −2.000, the “SDS Days Unproductive Week 5 Mean (SE)” value ([4]; Stage 1, 34 mg QD + SSRI/SNRI) was 0.956 (0.2356) and the “SDS Days Unproductive Week 5 Median” value ([4]; Stage 1, 34 mg QD + SSRI/SNRI) was 0.000. The “SDS score LSmean (SE) change from baseline to Week 5” value ([4]; Stage 1, 34 mg QD + SSRI/SNRI) was −3.3 (0.35), the “SDS score LSmean (SE) change from baseline to Week 5” value ([4]; Stage 1, 34 mg QD + SSRI/SNRI, listed as Pimavanserin) was −3.254 and the “SDS effect size (Cohen's d)” value ([4]; Stage 1 Week 5) was 0.498 and ~0.5. For the same compound, the “SDS individual items (work/school, social life, family life/home responsibilities) effect size vs placebo” value ([4]; Stage 1 Week 5) was “a positive effect size was observed for all the 3 individual items”, the “SDS effect size (Cohen's d)” value ([4]; Stage 1 Week 5, listed as Pimavanserin) was 0.498 and the “SDS Days Unproductive Effect Size (Cohen's d)” value ([4]; Stage 2) was 0.167. The “SDS effect size (Cohen's d)” value ([4]; Stage 2) was 0.311, the “SDS Days Unproductive Change from Baseline to Week 5 Mean (SE)” value ([4]; Stage 2, 34 mg QD + SSRI/SNRI) was −0.655 (0.4689) and the “SDS Days Unproductive Change from Baseline to Week 5 Median” value ([4]; Stage 2, 34 mg QD + SSRI/SNRI) was −1.000. The “SDS Days Unproductive Week 5 Mean (SE)” value ([4]; Stage 2, 34 mg QD + SSRI/SNRI) was 2.276 (0.4295), the “SDS Days Unproductive Week 5 Median” value ([4]; Stage 2, 34 mg QD + SSRI/SNRI) was 2.000 and the “SDS Score LSM change from baseline to Week 5” value ([4]; Stage 2, 34 mg QD + SSRI/SNRI) was −0.901. For the same compound, the “Functional remission: Remitter (%)” value ([4]; Week 1, Stage 1, 34 mg QD + SSRI/SNRI) was 9 (17.6) %, the “Functional remission: Remitter (%)” value ([4]; Week 1, Stage 2, 34 mg QD + SSRI/SNRI) was 2 (6.9) % and the “Functional remission: Remitter (%)” value ([4]; Week 2, Stage 1, 34 mg QD + SSRI/SNRI) was 21 (41.2) %. For the same compound, the “Functional remission: Remitter (%)” value ([4]; Week 2, Stage 2, 34 mg QD + SSRI/SNRI) was 3 (10.3) %, the “Functional remission: Remitter (%)” value ([4]; Week 3, Stage 1, 34 mg QD + SSRI/SNRI) was 20 (39.2) % and the “Functional remission: Remitter (%)” value ([4]; Week 3, Stage 2, 34 mg QD + SSRI/SNRI) was 3 (10.3) %. For the same compound, the “Functional remission: Remitter (%)” value ([4]; Week 4, Stage 1, 34 mg QD + SSRI/SNRI) was 20 (39.2) %, the “Functional remission: Remitter (%)” value ([4]; Week 4, Stage 2, 34 mg QD + SSRI/SNRI) was 4 (13.8) % and the “Functional remission: Remitter (%)” value ([4]; Week 5, Stage 1, 34 mg QD + SSRI/SNRI) was 22 (43.1) %. For the same compound, the “Functional remission: Remitter (%)” value ([4]; Week 5, Stage 2, 34 mg QD + SSRI/SNRI) was 6 (20.7) %, the “SDS effect size, treatment difference in LSmean change from baseline to Week 10” value ([4]; continuous treatment for 10 weeks in Stages 1 and 2) was 0.469 and the “Weighted Treatment Diff in Remission Rate (%)” value ([4]; functional remission, Overall Treatment Comparison at Week 5 (Linear Combination Test)) was 18.6%. For the same compound, the “Diff (PIM 34 mg-Placebo) in Remission Rate (%)” value (“Diff (PIM 34 mg-Placebo) … (%)” below) ([4]; functional remission, Week 1, Stage 1) was 5.1%, the “Diff (PIM 34 mg-Placebo) … (%)” value ([4]; functional remission, Week 1, Stage 2) was −3.4% and the “Diff (PIM 34 mg-Placebo) … (%)” value ([4]; functional remission, Week 2, Stage 1) was 27.4%. The “Diff (PIM 34 mg-Placebo) … (%)” value ([4]; functional remission, Week 2, Stage 2) was 0.0%, the “Diff (PIM 34 mg-Placebo) … (%)” value ([4]; functional remission, Week 3, Stage 1) was 24.1% and the “Diff (PIM 34 mg-Placebo) … (%)” value ([4]; functional remission, Week 3, Stage 2) was 0.0%. For the same compound, the “Diff (PIM 34 mg-Placebo) … (%)” value ([4]; functional remission, Week 4, Stage 1) was 19.5%, the “Diff (PIM 34 mg-Placebo) … (%)” value ([4]; functional remission, Week 4, Stage 2) was 6.9% and the “Diff (PIM 34 mg-Placebo) … (%)” value ([4]; functional remission, Week 5, Stage 1) was 23.4%. For the same compound, the “Diff (PIM 34 mg-Placebo) … (%)” value ([4]; functional remission, Week 5, Stage 2) was 13.8%, the “SDS LSmean difference (SE) pimavanserin vs placebo” value ([4]; overall (weighted Stage 1 and Stage 2)) was −0.8 (0.29) and the “deaths reported in the study” value [5] was “no deaths”.
